# Test results as given in ChEMBL document CHEMBL1136999, “Discovery of novel phosphonate derivatives as hepatitis C virus NS3 protease inhibitors” (Bioorg Med Chem Lett, 2009).
# Key:
# [1] = Inhibition of HCV NS3 protease; design: species or system Hepacivirus hominis
# [2] = Apparent systemic clearance in dog at 1.1 mg/kg, iv relative to liver blood flow; assay type: ADME, organism-based, Canis lupus familiaris; design: dose 1.1 mg/kg, route intravenous; settings: in vivo
# Hepatitis C virus = test: Antiviral activity against HCV in human HuH7 cells by replicon assay; assay type: functional, organism-based, Hepacivirus hominis; settings: Huh-7
# [3] = Cytotoxicity against human HuH7 cells; assay type: cell-based, Huh-7
# [4] = Apparent permeability from apical to basolateral side in human Caco-2 cells; assay type: ADME, cell-based
# [5] = Oral bioavailability in dog at 2.7 mg/kg; assay type: ADME, organism-based, Canis lupus familiaris; settings: in vivo
SMILES,IC50 [1] [nM],clearance [2] [mL/min/kg],EC50 (Hepatitis C virus) [nM],Papp A→B [4] [×10⁻⁶ cm/s],bioavailability [5] [%],CC50 [3] [nM]
C=CC1C[C@]1(NC(=O)[C@@H]1C[C@@H](Oc2cc(-c3csc(NC(C)C)n3)nc3cc(OC)ccc23)CN1C(=O)[C@@H](NC(=O)OC1CCCC1)C(C)(C)C)P(=O)(O)OCC (stereo partly specified),7,,360,,,> 50000
C=CC1C[C@]1(NC(=O)[C@@H]1C[C@@H](Oc2cc(-c3csc(NC(C)C)n3)nc3cc(OC)ccc23)CN1C(=O)[C@@H](NC(=O)OC1CCCC1)C(C)(C)C)P(=O)(OCOC(=O)OCC1CC1)OCOC(=O)OCC1CC1 (stereo partly specified),85,,41,,,

# The next lines start with results.
IC50 [1] [nM],clearance [2] [mL/min/kg],EC50 (Hepatitis C virus) [nM],Papp A→B [4] [×10⁻⁶ cm/s],bioavailability [5] [%],SMILES,CC50 [3] [nM]
280,28.3,39,,,C=CC1C[C@]1(NC(=O)[C@@H]1C[C@@H](Oc2cc(-c3csc(NC(C)C)n3)nc3cc(OC)ccc23)CN1C(=O)[C@@H](NC(=O)OC1CCCC1)C(C)(C)C)P(=O)(OCOC(=O)OCC)OCOC(=O)OCC (stereo partly specified),
3,,6,,,C=CC1C[C@]1(NC(=O)[C@@H]1C[C@@H](Oc2cc(-c3csc(NC(C)C)n3)nc3cc(OC)ccc23)CN1C(=O)[C@@H](NC(=O)OC1CCCC1)C(C)(C)C)C(=O)O (stereo partly specified),> 50000
0.9,,92,0.2,1,C=CC1C[C@]1(NC(=O)[C@@H]1C[C@@H](Oc2cc(-c3csc(NC(C)C)n3)nc3cc(OC)ccc23)CN1C(=O)[C@@H](NC(=O)OC1CCCC1)C(C)(C)C)P(=O)(O)O (stereo partly specified),> 50000
